# Test results reported in US20230117034A1, “PYRAZOLOTRIAZINES” (Bayer Aktiengesellschaft, priority 2019, published 2023).
# Molecular target: CDK12/CycK (Homo sapiens, UniProt Q9NYV4)
# Test: CDK12/CycK high ATP kinase assay (TR-FRET, 2 mM ATP)
# Assay type: biochemical
# Conditions: 2 mM ATP (high ATP); median; read-out: CDK12/CyclinK, 2 mM ATP (high ATP), IC50-[mol/l] (median)
# Outline: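 His-tagged human CDK12/CycK (~0.75 nM) pre-incubated 15 min with compound, then 60 min at 22 °C with 2 mM ATP and 1 µM biotinylated peptide (HEPES pH 7.5, 20 mM MgCl2). EDTA stop; phospho-Ser62 antibody/Eu anti-rabbit and streptavidin-XL665 TR-FRET, 665/620 nm ratio normalised to give IC50.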
# Sequence of CDK12/CycK (Q9NYV4 with tags, fused parts or gaps): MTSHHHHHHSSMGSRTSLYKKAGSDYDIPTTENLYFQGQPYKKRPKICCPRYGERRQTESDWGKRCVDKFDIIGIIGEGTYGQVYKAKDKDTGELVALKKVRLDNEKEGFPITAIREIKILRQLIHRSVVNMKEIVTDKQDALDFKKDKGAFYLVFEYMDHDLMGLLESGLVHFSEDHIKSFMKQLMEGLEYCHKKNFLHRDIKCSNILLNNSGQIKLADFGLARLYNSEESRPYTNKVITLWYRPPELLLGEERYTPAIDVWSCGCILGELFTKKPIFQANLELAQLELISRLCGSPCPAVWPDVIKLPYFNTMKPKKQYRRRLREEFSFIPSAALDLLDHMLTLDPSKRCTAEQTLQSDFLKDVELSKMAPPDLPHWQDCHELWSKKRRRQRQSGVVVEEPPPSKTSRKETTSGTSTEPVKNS
# Sequence of CDK12/CycK (O75909 1-300 partner limits assumed): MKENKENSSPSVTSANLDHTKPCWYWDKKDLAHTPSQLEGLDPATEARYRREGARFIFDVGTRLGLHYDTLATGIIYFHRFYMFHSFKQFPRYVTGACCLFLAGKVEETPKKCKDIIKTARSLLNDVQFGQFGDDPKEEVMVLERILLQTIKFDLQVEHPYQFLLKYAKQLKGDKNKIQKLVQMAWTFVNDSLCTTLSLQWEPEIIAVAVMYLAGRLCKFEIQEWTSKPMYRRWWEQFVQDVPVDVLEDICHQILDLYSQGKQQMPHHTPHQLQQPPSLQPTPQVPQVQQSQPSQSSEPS
row,SMILES,IC50
1,"N[C@H]1CCN(c2nc(NCc3nc4ccccc4[nH]3)n3ncc(Br)c3n2)C1 [Example 245, 2-[(3S)-3-aminopyrrolidin-1-yl]-N-[(1H-benzimidazol-2-yl)methyl]-8-bromopyrazolo[1,5-a][1,3,5]triazin-4-amine]",> 15.8 µM
2,"CC1(N)CCN(c2nc(NCc3nc4ccccc4[nH]3)n3ncc(Br)c3n2)CC1 [Example 290, 2-(4-amino-4-methylpiperidin-1-yl)-N-[(1H-benzimidazol-2-yl)methyl]-8-bromopyrazolo[1,5-a][1,3,5]triazin-4-amine]",> 19.8 µM
3,"c1ccc2[nH]c(CNc3nc(N4C[C@@H]5CCCN[C@@H]5C4)nc4c(C5CC5)cnn34)nc2c1 [Example 249, N-[(1H-benzimidazol-2-yl)methyl]-8-cyclopropyl-2-[(4aS,7aS)-octahydro-6H-pyrrolo[3,4-b]pyridin-6-yl]pyrazolo[1,5-a][1,3,5]triazin-4-amine]",> 17 µM
4,"Fc1ccc2[nH]c(CNc3nc(N4CCOCC4)nc4c(C5CCC5)cnn34)nc2c1F [Example 264, 8-cyclobutyl-N-[(4,5-difluoro-1H-benzimidazol-2-yl)methyl]-2-(morpholin-4-yl)pyrazolo[1,5-a][1,3,5]triazin-4-amine]",2.23 µM
5,"CN[C@@H]1CCN(c2nc(NCc3nc4ccccc4[nH]3)n3ncc(Br)c3n2)C1 [Example 253, N-[(1H-benzimidazol-2-yl)methyl]-8-bromo-2-[(3R)-3-(methylamino)pyrrolidin-1-yl]pyrazolo[1,5-a][1,3,5]triazin-4-amine]",> 20 µM
6,"Brc1cnn2c(NCc3nc4ccccc4[nH]3)nc(N3C[C@H]4CN[C@H]4C3)nc12.O=C(O)C(F)(F)F [Example 255, trifluoroacetic acid-N-[(1H-benzimidazol-2-yl)methyl]-8-bromo-2-[(1R,5R)-3,6-diazabicyclo[3.2.0]heptan-3-yl]pyrazolo[1,5-a][1,3,5]triazin-4-amine (1/1)]",> 20 µM
7,"Fc1ccc2[nH]c(CNc3nc(N4C[C@H]5CC[C@@H](C4)N5)nc4c(C5CC5)cnn34)nc2c1F [Example 294, 8-cyclopropyl-2-[(1R,5S)-3,8-diazabicyclo[3.2.1]octan-3-yl]-N-[(4,5-difluoro-1H-benzimidazol-2-yl)methyl]pyrazolo[1,5-a][1,3,5]triazin-4-amine]",1.86 µM
8,"Fc1ccc2[nH]c(CNc3nc(N4CC5CCC(C4)N5)nc4c(C(F)(F)F)cnn34)nc2c1F [Example 310, 2-(3,8-diazabicyclo[3.2.1]octan-3-yl)-N-[(4,5-difluoro-1H-benzimidazol-2-yl)methyl]-8-(trifluoromethyl)pyrazolo[1,5-a][1,3,5]triazin-4-amine]",1.29 µM
9,"Brc1cnn2c(NCc3nc4ccccc4[nH]3)nc(NCC3CC3)nc12 [Example 284, N^4-[(1H-benzimidazol-2-yl)methyl]-8-bromo-N^2-(cyclopropylmethyl)pyrazolo[1,5-a][1,3,5]triazine-2,4-diamine]",5.46 µM
10,"OCC1CN(c2nc(NCc3nc4ccccc4[nH]3)n3ncc(Br)c3n2)C1 [Example 304, [1-(4-{[(1H-benzimidazol-2-yl)methyl]amino}-8-bromopyrazolo[1,5-a][1,3,5]triazin-2-yl)azetidin-3-yl]methanol]",12.5 µM
11,"N[C@H]1CN(c2nc(NCc3nc4ccccc4[nH]3)n3ncc(Br)c3n2)CC12CC2 [Example 259, 2-[(7R)-7-amino-5-azaspiro[2.4]heptan-5-yl]-N-[(1H-benzimidazol-2-yl)methyl]-8-bromopyrazolo[1,5-a][1,3,5]triazin-4-amine]",2.59 µM
12,"COc1ccc2[nH]c(CNc3nc(N4CCOCC4)nc4c(C(F)(F)F)cnn34)nc2c1 [Example 257, N-[(5-methoxy-1H-benzimidazol-2-yl)methyl]-2-(morpholin-4-yl)-8-(trifluoromethyl)pyrazolo[1,5-a][1,3,5]triazin-4-amine]",0.117 µM
13,"N[C@@H]1CN(c2nc(NCc3nc4ccccc4[nH]3)n3ncc(Br)c3n2)CC12CC2 [Example 251, 2-[(7S)-7-amino-5-azaspiro[2.4]heptan-5-yl]-N-[(1H-benzimidazol-2-yl)methyl]-8-bromopyrazolo[1,5-a][1,3,5]triazin-4-amine]",0.972 µM
14,"Fc1ccc2[nH]c(CNc3nc(N4CCOCC4)nc4c(C5CC5(F)F)cnn34)nc2c1 (racemic) [Example 286, 8-[(1RS)-2,2-difluorocyclopropyl]-N-[(5-fluoro-1H-benzimidazol-2-yl)methyl]-2-(morpholin-4-yl)pyrazolo[1,5-a][1,3,5]triazin-4-amine]",11.3 µM
15,"Brc1cnn2c(NCc3nc4ccccc4[nH]3)nc(N3C[C@H]4CNC[C@H]4C3)nc12 [Example 283, N-[(1H-benzimidazol-2-yl)methyl]-8-bromo-2-[(3aR,6aS)-hexahydropyrrolo[3,4-c]pyrrol-2(1H)-yl]pyrazolo[1,5-a][1,3,5]triazin-4-amine]",18.3 µM
16,"FC(F)(F)Cc1cnn2c(NCc3nc4ccccc4[nH]3)nc(N3CCOCC3)nc12.O=CO [Example 265, formic acid-N-[(1H-benzimidazol-2-yl)methyl]-2-(morpholin-4-yl)-8-(2,2,2-trifluoroethyl)pyrazolo[1,5-a][1,3,5]triazin-4-amine (1/1)]",> 16.7 µM
17,"Fc1ccc2[nH]c(CNc3nc(N4CCOCC4)nc4c(C(F)(F)F)cnn34)nc2c1 [Example 273, N-[(5-fluoro-1H-benzimidazol-2-yl)methyl]-2-(morpholin-4-yl)-8-(trifluoromethyl)pyrazolo[1,5-a][1,3,5]triazin-4-amine]",0.983 µM
18,"c1ccc2[nH]c(CNc3nc(N4CCOCC4)nc4c(C5CCCC5)cnn34)nc2c1 [Example 244, N-[(1H-benzimidazol-2-yl)methyl]-8-cyclopentyl-2-(morpholin-4-yl)pyrazolo[1,5-a][1,3,5]triazin-4-amine]",> 20 µM
19,"FC(F)(F)Cc1cnn2c(NCc3nc4cc(Cl)ccc4[nH]3)nc(N3CCOCC3)nc12 [Example 299, N-[(5-chloro-1H-benzimidazol-2-yl)methyl]-2-(morpholin-4-yl)-8-(2,2,2-trifluoroethyl)pyrazolo[1,5-a][1,3,5]triazin-4-amine]",6.39 µM
20,"Fc1cc2nc(CNc3nc(N4CCOCC4)nc4c(C5CC5)cnn34)[nH]c2cc1F [Example 318, 8-cyclopropyl-N-[(5,6-difluoro-1H-benzimidazol-2-yl)methyl]-2-(morpholin-4-yl)pyrazolo[1,5-a][1,3,5]triazin-4-amine]",1.36 µM
21,"CC1CN(C)CCN1c1nc(NCc2nc3ccccc3[nH]2)n2ncc(Br)c2n1 (single isomer, unassigned; enantiomer 2) [Example 261, N-(1H-benzimidazol-2-ylmethyl)-8-bromo-2-[(2R or S)-2,4-dimethylpiperazin-1-yl]pyrazolo[1,5-a][1,3,5]triazin-4-amine (Enantiomer 2)]",> 18.7 µM
22,"Fc1cccc2[nH]c(CNc3nc(N4CCOCC4)nc4c(CC(F)(F)F)cnn34)nc12 [Example 303, N-[(4-fluoro-1H-benzimidazol-2-yl)methyl]-2-(morpholin-4-yl)-8-(2,2,2-trifluoroethyl)pyrazolo[1,5-a][1,3,5]triazin-4-amine]",1.71 µM
23,"CN(CC(C)(C)O)c1nc(NCc2nc3cc(Cl)c(Cl)cc3[nH]2)n2ncc(C3CC3)c2n1 [Example 306, 1-[(8-cyclopropyl-4-{[(5,6-dichloro-1H-benzimidazol-2-yl)methyl]amino}pyrazolo[1,5-a][1,3,5]triazin-2-yl)(methyl)amino]-2-methylpropan-2-ol]",1.85 µM
24,"c1ccc2[nH]c(CNc3nc(N4CCNCC4)nc4c(C5CC5)cnn34)nc2c1 [Example 247, N-[(1H-benzimidazol-2-yl)methyl]-8-cyclopropyl-2-(piperazin-1-yl)pyrazolo[1,5-a][1,3,5]triazin-4-amine]",14.7 µM
25,"CN1CCN(c2nc(NCc3nc4c(F)cccc4[nH]3)n3ncc(C(F)(F)F)c3n2)CC1 [Example 293, N-[(4-fluoro-1H-benzimidazol-2-yl)methyl]-2-(4-methylpiperazin-1-yl)-8-(trifluoromethyl)pyrazolo[1,5-a][1,3,5]triazin-4-amine]",5.91 µM
26,"Cc1cc2nc(CNc3nc(N4CCN(C)CC4)nc4c(C5CC5)cnn34)[nH]c2cc1C [Example 312, 8-cyclopropyl-N-[(5,6-dimethyl-1H-benzimidazol-2-yl)methyl]-2-(4-methylpiperazin-1-yl)pyrazolo[1,5-a][1,3,5]triazin-4-amine]",10.2 µM
27,"Brc1cnn2c(NCc3nc4ccccc4[nH]3)nc(N3C[C@@H]4CN[C@@H]4C3)nc12.O=C(O)C(F)(F)F [Example 267, trifluoroacetic acid-N-[(1H-benzimidazol-2-yl)methyl]-8-bromo-2-[(1S,5S)-3,6-diazabicyclo[3.2.0]heptan-3-yl]pyrazolo[1,5-a][1,3,5]triazin-4-amine (1/1)]",> 20 µM
28,"C[C@@H]1CN(c2nc(NCc3nc4ccccc4[nH]3)n3ncc(C4CC4)c3n2)C[C@H](C)N1 [Example 248, N-[(1H-benzimidazol-2-yl)methyl]-8-cyclopropyl-2-[(3R,5S)-3,5-dimethylpiperazin-1-yl]pyrazolo[1,5-a][1,3,5]triazin-4-amine]",9.2 µM
29,"Fc1ccc2[nH]c(CNc3nc(N4CCOCC4)nc4c(CC(F)(F)F)cnn34)nc2c1F [Example 268, N-[(4,5-difluoro-1H-benzimidazol-2-yl)methyl]-2-(morpholin-4-yl)-8-(2,2,2-trifluoroethyl)pyrazolo[1,5-a][1,3,5]triazin-4-amine]",2.13 µM
30,"CC1(O)CCN(c2nc(NCc3nc4ccccc4[nH]3)n3ncc(Br)c3n2)C1 (single isomer, unassigned) [Example 282, (3R or S)-1-(4-{[(1H-benzimidazol-2-yl)methyl]amino}-8-bromopyrazolo[1,5-a][1,3,5]triazin-2-yl)-3-methylpyrrolidin-3-ol]",> 8.95 µM
